From article PMC11469322, “Anti‐HER2 Super Stealth Immunoliposomes for Targeted‐Chemotherapy” (Advanced Healthcare Materials, 2023)
Like-named read-outs stand apart in the source and are kept apart here.

Tests used:
[1] = Pharmacokinetic study in rats; type: in vivo, Sprague Dawley rats; settings: 2.5 mg kg^−1 in DXR i.v.; for half-life: female, Sprague Dawley, rat, plasma, iv, 2.5 mg/kg, bicompartmental model
Experimental: DXR was extracted by treating 50 µL of plasma with 10 µL of 1 M Triton X‐100 and 580 µL of 81 mM HCl in isopropanol to allow plasma proteins precipitation. After overnight incubation at 4 °C, samples were centrifuged for 3 min × 3000 rpm and the supernatants were analyzed using an FP‐6500 Jasco spectrofluorometer (λ ex = 470 nm; λ em = 584 nm). DXR concentration in each plasma sample was extrapolated through a calibration curve of standard solutions of either DXR or DXR‐loaded SL for the liposomal formulations. The pharmacokinetic analysis was performed using the PKSolver 2.0 software by applying a bicompartmental model.

[2] = Toxicological study in rats (blood count, plasma biochemistry, histology); type: in vivo, Sprague Dawley rats
Source text: The study protocol was approved by the Ethics Committee of the University of Padova and the Italian Ministry of Health (Prot. No. 938/2016‐PR obtained on October 10, 2016), and animals were handled in compliance with national and international guidelines, that is, the Italian Legislative Decree 26/2014 and the “Guide for the Care and Use of Laboratory Animals” by the National Research Council of the National Academies. Female Sprague Dawley rats (140–190 g) were randomly divided into groups of 6 rats each. A dose of 2.5 mg kg^−1 in DXR of either free drug or DXR‐loaded liposomal formulations (SL, SIL, SSIL2) was administered via tail vein to the rats previously anesthetized with isoflurane gas (mixed with O2 in enclosed cages). At scheduled time points, blood samples (≈200 µL) were collected from the tail into heparin‐treated tubes and thereafter immediately centrifuged 15 min × 1500 × g to separate plasma. Rats were euthanized with isoflurane anesthesia 48 h after administration and the blood was collected with an intracardiac puncture to measure complete blood count and plasma biochemistry. These measurements were performed by means of standard laboratory tests.^[ [27] ^] After sacrifice, the main organs (liver, spleen, lungs, kidneys, heart, brain, ovaries) were collected, weighed, washed with saline solution, and frozen in liquid nitrogen. An appropriate amount of each organ was placed in formalin for histological analysis.^[ [28] ^]

[3] = system: SKBR3 cells; assay: In vitro cytotoxicity, ATPlite luminescence assay; type: cell-based; settings: Homo sapiens, SK-BR-3; SKBR3 (HER2+), 24 h treatment + 24 h fresh medium, µM in DXR
Experimental: (§1) For cytotoxicity experiments, four human cancer cell lines were used, that is, three HER2+ BT474 (ATCC HTB‐20), SKBR3 (ATCC HTB‐ 30) and SKOV3 (ATCC HTB‐77), and the HER2‐ MDA‐MB‐231 (ATCC HTB‐26). Cells were maintained in DMEM medium supplemented with 10% fetal bovine serum (FBS), 1% glutamine, 1% penicillin‐streptomycin, in humidified conditions at 37 °C with 5% CO2.
(§2) The cytotoxic effect of formulations was evaluated on HER2+ (BT474, SKBR3, and SKOV3) and HER2‐ (MDA‐MB‐231) cell lines by means of the ATPlite Luminescence ATP Detection Assay System. The cytotoxic effect of targeted DXR‐loaded liposomal formulations was compared to that of non‐targeted DXR‐loaded liposomes and free DXR (positive control). Cells treated only with the medium were used as control. Briefly, the cells were seeded in black 96‐well plates at a density of 5000 cells/well (SKBR3, SKOV3, and MDA‐MB‐231) and 7500 cells/well (BT474). After 24 h, cells were treated with increasing concentrations of the liposomal formulations (0.01–50 µM in DXR, n = 7) for 24 (SKBR3, SKOV3, and MDA‐MB‐231) or 48 (BT474) h. At the end of the exposure, treatments were replaced by fresh complete medium for 24 h. To quantify ATP production, cells were treated following the manufacturer's instructions, and luminescence was quantified by means of a Victor Nivo multi‐plate reader (PerkinElmer, Waltham, MA, USA). The percentage of cell viability was determined as (luminescencetreated cells/luminescencecontrol cells) × 100. IC50 values were calculated using GraphPad Prism 9.0 (San Diego, CA, USA) by a nonlinear regression model.

[4] = system: BT474 cells; assay: In vitro cytotoxicity, ATPlite luminescence assay; type: cell-based; settings: Homo sapiens, BT-474; BT474 (HER2+), 48 h treatment + 24 h fresh medium, µM in DXR
Experimental: as §1, §2

[5] = system: SKOV3 cells; assay: In vitro cytotoxicity, ATPlite luminescence assay; type: cell-based; settings: Homo sapiens, SK-OV-3; SKOV3 (HER2+), 24 h treatment + 24 h fresh medium, µM in DXR
Experimental: as §1, §2

AUC0‐inf [1]: 60 ± 31 ng·h/mL | half-life ([1]; read-out: t 1/2 alpha (converted)): 34.4 ± 21.6 min | half-life ([1]; read-out: t 1/2 beta (converted)): 79.1 ± 48.7 min
Structure (SMILES): COc1cccc2c1C(=O)c1c(O)c3c(c(O)c1C2=O)C[C@@](O)(C(=O)CO)C[C@@H]3O[C@H]1C[C@H](N)[C@H](O)[C@H](C)O1 [DXR, Doxorubicin]
Anemia (red blood cells, hemoglobin, hematocrit decreased versus controls) ([2]; 2.5 mg kg^−1 in DXR i.v., 48 h): anemic | Erythrocytes (RBCs) ([2]; 2.5 mg kg^−1 in DXR i.v., 48 h): 4.61e+12 L⁻¹ | Hematocrit ([2]; 2.5 mg kg^−1 in DXR i.v., 48 h): 0.286 L/L | Hemoglobin ([2]; 2.5 mg kg^−1 in DXR i.v., 48 h): 93 ± 10 g/L | Liver histology ([2]; 2.5 mg kg^−1 in DXR i.v., 48 h): small and isolated granulomatous lesion | MCH ([2]; 2.5 mg kg^−1 in DXR i.v., 48 h): 20.3 ± 0.4 pg | MCHC ([2]; 2.5 mg kg^−1 in DXR i.v., 48 h): 329 ± 20 g/L | MCV ([2]; 2.5 mg kg^−1 in DXR i.v., 48 h): 61.8 ± 2.9 fL | Platelets (PLTs) ([2]; 2.5 mg kg^−1 in DXR i.v., 48 h): 811 ± 402 x109/L | RDW ([2]; 2.5 mg kg^−1 in DXR i.v., 48 h): 11.8 ± 0.5% | Spleen histology ([2]; 2.5 mg kg^−1 in DXR i.v., 48 h): slight increased hematopoiesis | Leukocytes (WBCs) ([2]; 2.5 mg kg^−1 in DXR i.v., 48 h after administration): 2.05 ± 1.15 x109/L | Glucose ([2]; plasma biochemistry, 2.5 mg kg^−1 in DXR i.v., 48 h): 10.7 ± 0.8 mmol/L | ALP ([2]; plasma biochemistry, 48 h): 143 ± 36 U/L | ALT ([2]; plasma biochemistry, 48 h): 20 ± 6 U/L | AST ([2]; plasma biochemistry, 48 h): 78 ± 16 U/L | Albumin ([2]; plasma biochemistry, 48 h): 42 ± 3 g/L | Calcium ([2]; plasma biochemistry, 48 h): 2.67 ± 0.09 mmol/L | Chloride ([2]; plasma biochemistry, 48 h): 102 ± 2 mmol/L | Creatinine ([2]; plasma biochemistry, 48 h): 16 ± 2 µM | Direct bilirubin ([2]; plasma biochemistry, 48 h): 0.3 ± 0.2 µM | Inorganic Phosphorous ([2]; plasma biochemistry, 48 h): 2.45 ± 0.16 mmol/L | Potassium ([2]; plasma biochemistry, 48 h): 3.9 ± 0.4 mmol/L | Sodium ([2]; plasma biochemistry, 48 h): 142 ± 1 mmol/L | Total bilirubin ([2]; plasma biochemistry, 48 h): 0.4 ± 0.2 µM | Total cholesterol ([2]; plasma biochemistry, 48 h): 64 ± 9 mg/dL | Triglycerides ([2]; plasma biochemistry, 48 h): 64 ± 37 mg/dL | Urea ([2]; plasma biochemistry, 48 h): 4.7 ± 0.2 mmol/L | IC50 [3]: 0.034 ± 0.026 µM | IC50 [4]: 0.08 ± 0.003 µM | IC50 [5]: 0.092 ± 0.004 µM
